In brackets after ≈: the same amount, converted by molar mass.

Data on 2 compounds can be found in paper PMC9400227, “αvβ3 integrin-specific exosomes engineered with cyclopeptide for targeted delivery of triptolide against malignant melanoma” (Journal of Nanobiotechnology, 2022).

Data set [1] deals with malignant melanoma. Set-up: method as in PMID 31564801. The settings on record: chemotherapeutic drug for MM; cited from earlier work.
For data set [2] the following is noted: mouse, in vivo. The method, then:
Briefly, the mouse bodyweight of all groups was recorded throughout the treatment period. To evaluate systemic safety, after the termination of treatment, the tissues of the heart, liver, spleen, lung, and kidney were collected to calculate organ indexes [mass of the organ (mg)/bodyweight (g)] and to stain for H&E. In addition, orbital blood was sampled for a routine blood test, hepatic function test and renal function test, including RBC, WBC, ALT, and Cr.

The subject of data set [3] is A375 cells. The experiment in a line: CCK-8 cytotoxicity assay. It is filed as cell-based. As to conditions: Homo sapiens, A-375, 24 h. On the procedure: A375 cells were incubated with different concentrations of TP for 24 h. After that, 10 μL of CCK-8 was added to the treated cells and incubated for another 20 min. The absorbance was detected using a microplate reader.
In general terms: Tetrazolium dyes change colour on reduction, which living cells bring about.

Data set [4] can be described thus: Plasma pharmacokinetics in tumor-bearing mice. As to conditions: nude, mouse, in vivo, iv, 600 ug/kg. The method, then:
The TP concentrations in blood, heart, liver, spleen, lung, kidney, and tumor tissues were also quantified over time. […] The preparations were injected intravenously at drug-equivalent doses of 600 μg/kg TP. After injection, blood was sampled from the orbital vein at 5 min, 10 min, 15 min, 30 min, 1 h, 2 h, 4 h, 6 h, and 24 h. In addition, heart, liver, spleen, lung, kidney, and tumor tissues were collected at 5 min, 30 min, 1 h, 2 h, 4 h, 6 h, and 24 h. Nine mice were sacrificed at each time point (n = 3), whereas at 10 min and 15 min, the mice were only taken for blood and were not killed. The TP concentration in plasma and tissue homogenate was analyzed with UHPLC-MS/MS.
TP concentrations in cells, plasma, primary organs, and tumors were analyzed using UHPLC-MS/MS (Thermo Fisher Scientific, CA, USA). The separation was performed on an ACQUITY UPLCTM BEH C18 column (2.1 × 100 mm, i.d., 1.7 μm). The column temperature was maintained at 40 °C. The mobile phases were 1% acetic acid aqueous solution (A) and methanol (B). Isocratic elution with 40% A and 60% B was adopted at a flow rate of […]. The temperature and flow rate of dry gas (N2) were 350 °C and 8 L/min, respectively. The pressure of the nebulizer gas (N2) was 40 psi. The capillary voltage was […]. The positive multiple reaction monitoring (MRM) mode was adopted to determine TP and carbamazepine (internal standard, IS). The collision energy was 33 eV for both TP and IS. The precursor-to-product transitions were m/z 361.1 → 105.2 for TP and m/z 237.1 → 194.0 for IS.

Data set [5] has as its system A375 cells. The experiment in a line: Transwell invasion assay. Type of data set: cell-based, human. The settings on record: A375 cells pretreated 6 h, Transwell with Matrigel 24 h. On the procedure: Then, the differently treated cells were incubated in the apical Transwell insert (24-well plant covered with Matrigel polycarbonate membranes, pore size 8 μm). Meanwhile, 800 μL of DMEM with 10% FBS used for cell chemotaxis was added to the basolateral champers. After incubation for 24 h, the cells on the top side of the apical chamber were wiped, and then the migrated cells were fixed with 4% paraformaldehyde and stained with 0.1% crystal violet. After that, five random fields under an inverted microscope were visualized, and the migrated cells were counted by ImageJ software.

The subject of data set [6] is A375 cells. Briefly: Cell cycle assay (PI staining). Type of data set: cell-based, human. As to conditions: 24 h. The method, then: The cell cycle assay was carried out to explore the correlation between mitosis and cytotoxicity. […] The treated cells were then fixed with 70% ethanol for 12 h, washed with PBS 3 times, and stained with propidium iodide/RNase A for 30 min. After that, the red fluorescence of differently treated cells was recorded at 488 nm, and the DNA content of cells was also analyzed.

A short description of data set [7]: In vivo antitumor efficacy in A375 xenograft tumor model. The settings on record: tumor-bearing mice, Kaplan–Meier; control 25.5 days.
Data set [8] deals with A375 cells. The experiment in a line: Cell apoptosis assay (Annexin V-APC/7-AAD flow cytometry). The settings on record: 24 h. On the procedure:
Then, the cells were trypsinized by pancreatic enzymes without DMSO and resuspended in 500 μL 1× Binding Buffer. The cell suspension was stationarily cultured at room temperature for 15 min in the dark after adding 7-AAD and Annexin V-APC. Subsequently, cell apoptosis and necrosis were detected with a flow cytometer.
(A flow cytometer gives signals particle by particle.)

For `CN(C)/N=N/c1[nH]cnc1C(N)=O` [dacarbazine], the total effective rate in data set [1] is on record as 10–15%.

`CC(C)[C@]12O[C@H]1[C@@H]1O[C@]13[C@]1(O[C@H]1C[C@H]1C4=C(CC[C@@]13C)C(=O)OC4)[C@@H]2O` [TP, triptolide]: in data set [2], the “ALT (alanine aminotransferase)” value came to 76.25 ± 4.03 U/L; the “Cr (creatinine)” value amounted to 27.76 ± 1.52 µmol/L; the “H&E staining of normal tissues” value is “heart, liver, and kidney were damaged”; the “RBC (red blood cell)” value is reported as 8.11 ± 0.65 × 10^12/L. In addition, in data set [2], the “WBC (white blood cell)” value is 6.73 ± 0.51 × 10^9/L, the “mice bodyweight during the treatment period” value is recorded as “suffered a bodyweight loss” and the “organ indexes versus control” value is “significantly lower than those of the control mice”. Also, in data set [3], the IC50 (in general, the concentration needed to halve the response being measured) turned out to be 0.0696 mg/L (≈ 0.193 µM). In data set [4], the AUC(0-inf) (in general, the area under the concentration-time curve extrapolated to infinity) is 1.4 ± 0.0814 µg·h/mL; the Cmax (usually the maximum level reached in the sampled fluid or tissue) is 0.612 ± 0.1 µg/mL; the MRT (usually a mean duration of stay, worked out from the concentration-time curve) is 3.6 ± 1.8 min; the clearance (in general, the rate of elimination divided by the concentration) was 2.19 L/h/kg. Besides, the half-life (as a rule, the time needed for the level to fall by half in the phase considered) in data set [4] was 18.6 ± 3.6 min. In addition, in data set [5], the invasion inhibition rate came to 45.54 ± 6.35%. In data set [6] (control 8.07 ± 0.39%), the “cell population of the S phase” value is listed as 17.73 ± 0.79%. Besides, the “cell population of the G0/G1 phase” value in data set [6] (control 88.91 ± 0.81%) is 72.87 ± 3.71%. The compound also returned a mean survival time in data set [7] of 29.5 days. In addition, in data set [8], the “apoptosis and necrosis (mortal cells)” value came to 22.10 ± 1.66%.
